# Experimental data as given in US9981004B2, “Inhibition of TREM receptor signaling with peptide variants” (SignaBlok, Inc., priority 2009, dated 2018).
# Assay: Solubility of CP and CP-A peptides
# Format: physicochemical
# Text: A variety of solvents and carriers can be tested to improve their solubility. Solvents and/or carriers that improve solubility of CP and CP-A include, but are not limited to, ethanol, dimethylsulphoxide (DMSO), dimethyl formamide (DMF), and trifluoracetic acid (TFA). When using DMSO as a solvent, the final concentration used in the cell function experiments may range from 0.063%-0.250%. Stock solutions of CP and CP-A can be prepared in DMSO and used at a 1:2000, 1:1000, or 1:400 dilution. In one embodiment, drug delivery systems (i.e., for example, lipid vesicles) can be used to increase solubility and bioavailability of CP and CP-A.
row,Substance,solubility in aqueous solutions
1,"H-GFLSKSLVF-OH [CP, NH2-Gly-Phe-Leu-Ser-Lys-Ser-Leu-Val-Phe-OH]",insoluble in aqueous solutions
2,"H-GFLSASLVF-OH [CP-A, NH2-Gly-Phe-Leu-Ser-Ala-Ser-Leu-Val-Phe-OH]",insoluble in aqueous solutions
